Test results reported in US20060247862A1, “Determining cell cycle phase data” (priority 2003, published 2006).

System: U2OS cells
Assay: Effect of cell cycle blocking agents on GFP fluorescence from cell cycle phase marker using transiently transfected cells
Assay type: cell-based
Conditions: U2OS cells transiently transfected with cyclin B1 promoter/D-box/CRS-GFP construct; 24 hours exposure; compared to control cells (culture media alone); confocal imaging
Method: U2OS cells (ATCC HTB-96) were cultured in wells of a 96 well microtitre plate. Cells were transfected with a cell cycle reporter construct prepared according to Example 1, comprising a cyclin B1 promoter operably linked to sequences encoding the cyclin B1 D-box, the cyclin B1 CRS, and GFP in a pCORON4004 vector (Amersham Biosciences) using Fugene 6 (Roche) as the transfection agent.
Following 24 hours of culture, cells were exposed to the specific cell cycle blockers mimosine (blocks at G1/S phase boundary) or demecolcine (blocks in M phase). Control cells were exposed to culture media alone.
Cells were incubated for a further 24 hours and then analysed for nuclear GFP expression using a confocal scanning imager with automated image analysis (IN Cell Analysis System, Amersham Biosciences).

Compound	GFP fluorescence (nuclear GFP expression) from cell cycle phase marker
CN[C@H]1CCc2cc(OC)c(OC)c(OC)c2-c2ccc(OC)c(=O)cc21 [demecolcine]	increased fluorescence compared to control cells
NC(Cn1ccc(=O)c(O)c1)C(=O)O (centres unmarked) [mimosine]	decreased fluorescence compared to control cells
